Results taken from patent publication US5004735A, “Pharmaceutical compositions for the inhibition of tumor metastasis” (Nisshin Flour Milling Co., Ltd., priority 1988, dated 1991).

Legend:
[1] = system: B16-F10 melanoma; assay: Inhibition of tumor metastasis to lung by intravenous oily emulsions (Example 8); assay type: in vivo, male C57BL/6 mice; conditions: oily emulsion i.v., 9 times every three days
Experimental: Male C57BL/6 mice (6 weeks old) were given 4×10^5 B16-F10 melanoma cells in 0.05 ml of serum-free RPMI 1640 medium in the foot pad of the left hind leg. […] The tumor-bearing legs were cut on day 27 and the mice were sacrificed on day 41. The number of metastatic nodules formed in the lung was counted for each mouse. 10 Animals were used per each group. % Inhibition of tumor metastasis to lung was calculated on the basis of the following formula.
% Inhibition of tumor metastasis to lung=(1-M/M0)×100

[2] = system: B16-F10 melanoma cells; assay: L-PHA-sensitivity of cultured tumor cells (Example 4); assay type: cell-based; conditions: Mus musculus, 10 μl of 50 μg/ml test compound in DMSO added on day 1 to 2 ml medium, L-PHA 50 μl of 50 μg/ml on day 2, count day 4, control 42.0, read-out: Growth inhibition by L-PHA
Experimental: Tumor cell culture: B16-F10 melanoma cells were incubated in RPMI 1640 medium containing 10% fetal bovine serum and antibiotics at 37° C.
Test method: B16-F10 cells (5×10^4) in 2 ml of the medium were seeded onto a plastic dish and incubation was started. On day 1, 10 μl of dimethylsulfoxide (control group) or a test compound suspended in 10 μl of dimethylsulfoxide at a concentration of 50 μg/ml (test group) was added. On day 2, 50 μl each of water was added to a half of each of the control group and the test group, and 50 μl of 50 μg/ml L-PHA solution in water was added to a remaining half. On day 4, the number of cells was counted in L-PHA-treated and untreated groups and % growth inhibition by L-PHA was calculated according to the following formula:
% Growth Inhibition=(1-N/N0)×100
in which N denotes a number of cells in the presence of L-PHA and N0 denotes a number of cells in the absence thereof.

[3] = system: B16-F10 melanoma; assay: Inhibition of lung metastasis of B16-F10 melanoma in mice, intraperitoneal olive oil solution (Example 3); assay type: in vivo, male C57BL/6 mice
Experimental: (§1) Experimental animal: male C57BL/6 mice (6 weeks old)
(§2) Tumor cell line: B16-F10 melanoma
Compounds B, D, E and F were tested for the inhibitory effect on tumor metastasis using the same experimental animal and tumor cell line as in Example 1. Test method: Mice were given 4×10^5 B16-F10 melanoma cells in 0.05 ml of serum-free RPMI 1640 medium in the foot pad of the left hind leg. A solution of Compounds B, D, E or F (0.1 or 0.2 mg) in 0.2 ml of olive oil was administered intraperitoneally every other day from day 1 to day 27 after inoculation of the melanoma cells. During this period, the size of the inoculated tumors was observed macroscopically. On day 28, the tumor-bearing legs were cut from the mice and on day 42 the mice were sacrificed. The number of metastatic nodules formed on the lung surface was counted for each mouse. 10 Animals were used per each group except for control group wherein 20 animals were used.

[4] = system: B16-F10 melanoma; assay: Inhibition of lung metastasis of B16-F10 melanoma in mice, intraperitoneal suspension (Examples 1 and 2); assay type: in vivo, male C57BL/6 mice; conditions: for Number of metastatic nodules mean ± standard error / Inhibition of metastasis: day 1 to 27, day 42; for Number of metastatic nodules mean ± standard error: lung surface; for Inhibition of metastasis: lung
Experimental: as §1, §2
Test method: Mice were given 4×10^5 B16-F10 melanoma cells in 0.05 ml of serum-free RPMI 1640 medium in the foot pad of the left hind leg. […] During this period, the size of the inoculated tumor was observed macroscopically. On day 28, tumor-bearing legs were cut from the mice and on day 42 the mice were sacrificed. The number of metastatic nodules formed on the lung surface was counted for each mouse. 10 Animals were used per each group
Compounds G and H were tested for the inhibitory effect on tumor metastasis.

Structure (SMILES) | Inhibition of tumor metastasis to lung ([1]; 0.8 mg/kg) [%] | inhibition at 50 µg/mL (stock) [2] [%] | Growth of the inoculated tumors (in words) ([3]; 10 mg/Kg i.p., compared with Control) | Number of metastatic nodules mean ± standard error ([3]; 10 mg/kg i.p. in olive oil every other day, day 1 to 27, lung surface, day 42) | Inhibition of metastasis ([3]; 10 mg/kg i.p. in olive oil every other day, day 1 to 27, lung, day 42) [%] | Inhibition of tumor metastasis to lung ([1]; 0.3 mg/kg) [%] | Inhibition of tumor metastasis to lung ([1]; 2.0 mg/kg) [%] | Number of metastatic nodules mean ± standard error ([4]; 5 mg/kg i.p. every other day) | Inhibition of metastasis ([4]; 5 mg/kg i.p. every other day) [%] | Number of metastatic nodules mean ± standard error ([4]; 10 mg/kg i.p. every other day) | Inhibition of metastasis ([4]; 10 mg/kg i.p. every other day) [%] | Inhibitory effect on tumor metastasis (in words) ([4]; Example 2, i.p. suspension, same method as Example 1)
CC(C)=CCC/C(C)=C/CC/C(C)=C/CC/C(C)=C/CC/C(C)=C/CC/C(C)=C/CC/C(C)=C/CC/C(C)=C/CC/C(C)=C/CCC(C)CCO (centres unmarked) [Compound B] | 54 | 36.6 | about the same as that of Control | 11.7 ± 6.2 | 63 | – | – | – | – | – | – | –
CC(C)=CCC/C(C)=C/CC/C(C)=C/CC/C(C)=C/CC/C(C)=C/CC/C(C)=C/CC/C(C)=C/CC/C(C)=C/CC/C(C)=C/CCC(C)CCOP(=O)(O)O (centres unmarked) [Compound C] | 78 | 32.7 | – | – | – | 79 | 85 | 1.2 ± 0.8 | 94 | 0 | 100 | –
CC(C)=CCC/C(C)=C/CC/C(C)=C/CC/C(C)=C/CC/C(C)=C/CC/C(C)=C/CC/C(C)=C/CC/C(C)=C/CC/C(C)=C/CCC(C)CCOP(=O)(O)O (centres unmarked) [Compound G] | – | – | – | – | – | – | – | – | – | – | – | essentially the same as that of Compound C
